Measurements published in US20110098177A1, “METHODS AND COMPOSITIONS OF PLANT MICRONUTRIENTS” (NOVUS INTERNATIONAL INC., priority 2006, published 2011).
Entries after “also recorded” stand apart in the source; their conditions may differ. Read-outs that look alike come from different tables or passages of the source. Marks after values point to notes of the source that are not given here.

Key:
Format in all cases: in vivo
Aristotle bell pepper [1] = test system: Aristotle bell pepper
Method in brief: (§1)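 Florida-47 tomato and Aristotle bell pepper transplants in 2-gal pots with low-nutrient medium (pH 5.36), drip-irrigated; products at three rates in deionized water plus non-ionic surfactant sprayed on newly matured leaves at 3 and 7 WAT. Toxicity scored at 4 WAT (0=no damage, 10=death); foliar tissue analysed at 6 WAT; marketable fruit harvested 4 times (tomato).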

Florida-47 tomato [2] = test system: Florida-47 tomato
Method in brief: as §1

Tygress tomato plants [3] = experiment: Foliar nutrient concentration at 6 WAT, open-field tomato (Examples 7-10); settings: in vivo
Method in brief: (§2)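 Open-field Florida trial, spring 2008: transplants at 4-true-leaf stage on drip-irrigated raised beds were foliar-sprayed at 3 and 5 WAT (BIOX-CM at 4 and 5 WAT) at 60 gal/acre with non-ionic surfactant. Most recent mature leaves were sampled at 6 WAT. Tomato fruit was USDA-graded and analysed for minerals.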

[4] = test system: Patriot bell pepper plants; experiment: Foliar nutrient concentration at 6 WAT, open-field bell pepper (Examples 7-10); settings: in vivo
Method in brief: as §2

Tygress tomato plants [5] = experiment: Marketable yield, open-field tomato (Examples 7-10); settings: in vivo
Method in brief: as §2

[6] = test system: Patriot bell pepper plants; experiment: Marketable yield, open-field bell pepper (Examples 7-10); settings: in vivo
Method in brief: as §2

Tygress tomato plants [7] = experiment: Nutrient concentration of tomato fruits at 10 WAT, open field (Examples 7-10); settings: in vivo
Method in brief: as §2

Tygress tomato plants [8] = experiment: Foliar nutrient concentration at 7 WAT, greenhouse tomato spring 2009 (Examples 13-15)
Experimental: (§3) The following experiments were performed in a green house during the spring of 2009 at GCREC, Balm, University of Florida. Crop set-up, procedures and variables were as follows.
(§4) Transplants of ‘Tygress’ tomato plants were planted in 2-gallon pots filled with commercial planting medium with nutrient concentration of Fe, Zn, Mn, Cu being negligible and insufficient for crop growth. Irrigation and non-micronutrient fertilizer were provided daily through microsprinklers at recommended rates for tomato production in Florida. No pesticides were used. Treatments were as described in Tables 42, 43, and 44 below. BIOX-Cu was compared to Cu-sulfate, BIOX-EDC, and BIOX-O; and BIOX-Fe was compared to Fe-sulfate and BIOX-EDF. BIOX-MEZ is Ca-HMTBA.
(§5) Treatments were applied at 6 WAT (weeks after transplanting) using a water volume of 200 mL/plant. Deionized water was used for foliar applications. A non-ionic surfactant was added. Other nutrients were applied as appropriate under non-limiting conditions.
Foliar tissue nutrient analysis was performed at 3 WAT (i.e., 3 weeks before treatment) and 7 WAT (i.e., 1 weeks after treatment) on the non-applied newest leaves. The concentrations of N, P, K, Mg, Ca, B, Zn, Mn, Fe, and Cu in the foliar tissue were determined by a commercial laboratory. There were no significant differences between the foliar nutrient concentrations of any of the treatment groups prior to treatment.
(§6) Experimental design was a randomized complete block design with 6 replications. Data were analyzed using a general linear model, and means were separated using an LSD test at the 5% significance level.

Tygress tomato plants [9] = experiment: Yields of tomato fruits, greenhouse spring 2009 (Examples 13-15)
Experimental: as §3, §4, §5
Marketable fruit were collected three times during the growing season, starting at 10 WAT (4 weeks after the initial treatment). Tomato fruit was graded as marketable and non-marketable. Marketable fruit was sized as extra-large, large, and medium. Non-marketable fruit were harvested and number and weight recorded but not sized.
as §6

Tygress tomato plants [10] = settings: for Toxicity (0-10): 0=no injury, 10=plant death
Experimental: as §3, §4, §5
Toxicity of the treatments was assessed by rating foliar tissue using a visual scale, where 0=no injury and 10=plant death.
as §6

Florida-47 tomato [11] = experiment: Marketable yield per plant, greenhouse Fall 2007, tomato
Experimental: (§7) The following experiments were performed in a green house during the fall of 2007 at GCREC, Balm, University of Florida. Fifteen products, at 3 different application rates were examined. The plot size was 2-gallon pots. Crop set-up, procedures and variables were as follows.
(§8) Transplants of ‘Florida-47’ tomato and ‘Aristotle’ bell pepper plants in the 4-true leaf stage (about 6 inches tall) were planted in 2-gal pots on Aug. 27, 2007. Pots were filled with a commercially available planting medium. This medium was selected based on the mineral composition of the products to be applied without providing significant nutritional inputs to the crops. Irrigation was provided with drip lines delivering between 0.50 and 0.33 gal/day/pot for tomato and bell pepper, respectively, and the crops were irrigated three times per day. No foliar pesticides were necessary.
(§9) There were four control treatments corresponding to each target micronutrient in which non-Fe, non-Mn, non-Zn or non-Cu pots received all other essential nutrients under non-limiting conditions.
(§10) Treatments were applied at three rates (high, medium and low) obtained from the estimated concentration of Zn, Fe, Cu, and Mn foliarly-applied in tomato and bell pepper in field situations (Table 1). Products were weighed and dissolved in 200 ml of deionized water with a non-ionic surfactant and applied to the newly-matured open leaves of each crop at 3 and 7 weeks after transplant (WAT). Treated pots were isolated during application to avoid cross-contamination of other treatments.
(§11) Medium nutrient concentration was determined 1 week before treatment. The mineral composition of the medium was 26.8 ppm NH4—N, 49 ppm NO3—N, 15.8 ppm P, 91.2 ppm K, 82.3 ppm Ca, 58.2 ppm Mg, 23.9 ppm Na, 125.6 ppm S, 1.33 ppm Fe, 0.39 ppm Mn, 0.35 ppm Zn, 0.05 pp, Cu, 0.04 ppm B, 0 ppm Mo, 0.73 ppm Al, and 12.1 ppm Si. The pH of the medium was 5.36 and the electric conductivity was 1.38 mS/cm. The foliar tissue analysis was performed at 6 WAT and the concentration of N, P, K, Mg, Ca, S, B, Zn, Mn, Fe, and Cu was determined by a commercial laboratory. Plant toxicity was determined at 4 WAT by using a 0-10 visual scale, where 0=no visible damage and 10=total plant death. Marketable fruit weight was collected 2 times in bell pepper and 4 times in tomato following USDA standards.
(§12) Data were analyzed using a general linear model, and means were separated using orthogonal contrasts at the 5% significance level.

Aristotle bell pepper [12] = experiment: Marketable yield per plant, greenhouse Fall 2007, bell pepper
Experimental: as §7, §8, §9, §10, §11, §12

[13] = BIOX-Cu at 0.46 and 0.55 lb/acre, Cu-sulfate at 0.8 lb/acre, BIOX-EDC at 0.4 lb/acre
[14] = High rate, 1 week after treatment, scale 0 = no visible injury, 10 = plant death
[15] = Low rate, 1 week after treatment, scale 0 = no visible injury, 10 = plant death
[16] = Medium rate, 1 week after treatment, scale 0 = no visible injury, 10 = plant death
[17] = foliar application at 3 and 7 WAT, rates not separated

## O=S(=O)([O-])[O-].[Cu+2] [BIOX-INC, copper sulfate]
Aristotle bell pepper [1]; in vivo
  Pepper toxicity: 0
Florida-47 tomato [2]; in vivo
  Tomato toxicity: 0
Tygress tomato plants [3]
  Foliar B concentration of tomato plants: 40 ppm
  Foliar Ca concentration of tomato plants: 2.0%
  Foliar Cu concentration of tomato plants: 503 a ppm
  Foliar Fe concentration of tomato plants: 71 ppm
  Foliar K concentration of tomato plants: 5.3%
  Foliar Mg concentration of tomato plants: 0.60%
  Foliar Mn concentration of tomato plants: 208 ppm
  Foliar N concentration of tomato plants: 4.7%
  Foliar P concentration of tomato plants: 0.17%
  Foliar Zn concentration of tomato plants: 281 ppm
  Foliar concentration of Cu of tomato plants compared to control, statement: significant increase in the foliar concentration of Cu
[4]
  Foliar B concentration of bell pepper plants: 39 ppm
  Foliar Ca concentration of bell pepper plants: 2.0%
  Foliar Cu concentration of bell pepper plants: 503 a ppm
  Foliar Fe concentration of bell pepper plants: 71 ppm
  Foliar K concentration of bell pepper plants: 5.3%
  Foliar Mg concentration of bell pepper plants: 0.60%
  Foliar Mn concentration of bell pepper plants: 208 ppm
  Foliar N concentration of bell pepper plants: 4.7%
  Foliar P concentration of bell pepper plants: 0.17%
  Foliar Zn concentration of bell pepper plants: 281 ppm
  Foliar concentration of Cu of bell pepper plants compared to control, statement: significant increase in the foliar concentration of Cu
Tygress tomato plants [5]
  Marketable yield, Tomato: 17.4 a ton/acre
  Tomato marketable yield compared to control, statement: significantly increased tomato marketable yields relative to control; also recorded: significantly higher marketable yield of tomato fruits compared to control
[6]
  Marketable yield, Bell Pepper: 7.3 ton/acre
Tygress tomato plants [7]
  B concentration of tomato fruits: 21 ppm
  Ca concentration of tomato fruits: 0.2%
  Cu concentration of tomato fruits: 22 ppm
  Fe concentration of tomato fruits: 85 ppm
  K concentration of tomato fruits: 8.0%
  Mg concentration of tomato fruits: 0.38%
  Mn concentration of tomato fruits: 42 ppm
  N concentration of tomato fruits: 4.4%
  P concentration of tomato fruits: 0.68%
  Zn concentration of tomato fruits: 332 ppm
Tygress tomato plants [8]; 7 WAT (1 week after treatment)
  Copper concentrations in tomato leaves, statement: highest leaf copper concentrations
Tygress tomato plants [9]; [13]
  Marketable tomato yields compared to non-treated control, statement: did not alter marketable yields relative to the non-treated control
Tygress tomato plants [10]; [13]
  Toxicity compared to non-treated control plants, statement: increased levels of toxicity

## CSCCC(O)C(=O)[O-].CSCCC(O)C(=O)[O-].[Ca+2] (centres unmarked) [BIOX-MEZ, Ca-HMTBA]
Aristotle bell pepper [1]; [14]
  Pepper toxicity: 0
Aristotle bell pepper [1]; [15]
  Pepper toxicity: 0
Aristotle bell pepper [1]; [16]
  Pepper toxicity: 0
Florida-47 tomato [2]; [14]
  Tomato toxicity: 0
Florida-47 tomato [2]; [15]
  Tomato toxicity: 0
Florida-47 tomato [2]; [16]
  Tomato toxicity: 0
Florida-47 tomato [11]; [17]
  Marketable yield per plant, Tomato: 3.0* lb/plant
Florida-47 tomato [11]; foliar applications, P<0.05
  Tomato yield compared with control (in words): significantly increased
Aristotle bell pepper [12]; [17]
  Marketable yield per plant, Pepper: 3.2* lb/plant
Aristotle bell pepper [12]; foliar applications, P<0.05
  Bell pepper yield compared with control (in words): significantly increased
Tygress tomato plants [8]; 0.6 lb/acre, 7 WAT
  Nutrient concentration in tomato leaves: Ca: 1.3 b %
  Nutrient concentration in tomato leaves: K: 3.8%
  Nutrient concentration in tomato leaves: Mg: 0.6%
  Nutrient concentration in tomato leaves: N: 3.8%
  Nutrient concentration in tomato leaves: P: 0.6%
Tygress tomato plants [8]; 1.2 lb/acre, 7 WAT
  Nutrient concentration in tomato leaves: Ca: 1.3 b %
  Nutrient concentration in tomato leaves: K: 4.4%
  Nutrient concentration in tomato leaves: Mg: 0.6%
  Nutrient concentration in tomato leaves: N: 4.2%
  Nutrient concentration in tomato leaves: P: 0.7%
Tygress tomato plants [8]; 2.5 lb/acre, 7 WAT
  Nutrient concentration in tomato leaves: Ca: 1.3 b %
  Nutrient concentration in tomato leaves: K: 3.9%
  Nutrient concentration in tomato leaves: Mg: 0.5%
  Nutrient concentration in tomato leaves: N: 4.4%
  Nutrient concentration in tomato leaves: P: 0.7%
Tygress tomato plants [8]; 4.8 lb/acre, 7 WAT
  Nutrient concentration in tomato leaves: Ca: 1.2 b %
  Nutrient concentration in tomato leaves: K: 3.9%
  Nutrient concentration in tomato leaves: Mg: 0.6%
  Nutrient concentration in tomato leaves: N: 3.8%
  Nutrient concentration in tomato leaves: P: 0.6%
Tygress tomato plants [8]; 7.2 lb/acre, 7 WAT
  Nutrient concentration in tomato leaves: Ca: 1.7 a %
  Nutrient concentration in tomato leaves: K: 4.6%
  Nutrient concentration in tomato leaves: Mg: 0.6%
  Nutrient concentration in tomato leaves: N: 4.7%
  Nutrient concentration in tomato leaves: P: 0.7%
Tygress tomato plants [8]; BIOX-MEZ at a rate of 7.2 lb/acre, 7 WAT
  Foliar Ca concentration, statement: significantly increased
Tygress tomato plants [8]; BIOX-MEZ treatment, 7 WAT
  Foliar levels of N, P, K, and Mg, statement: not affected
Tygress tomato plants [9]; 0.6 lb/acre
  Marketable yield: 1100 g/plant
Tygress tomato plants [9]; 1.2 lb/acre
  Marketable yield: 875 g/plant
Tygress tomato plants [9]; 2.5 lb/acre
  Marketable yield: 925 g/plant
Tygress tomato plants [9]; 4.8 lb/acre
  Marketable yield: 1000 g/plant
Tygress tomato plants [9]; 7.2 lb/acre
  Marketable yield: 900 g/plant
Tygress tomato plants [9]; BIOX-MEZ treatment
  Marketable or non-marketable yields, statement: no change in marketable or non-marketable yields
Tygress tomato plants [10]; 0.6 lb/acre
  Toxicity (0-10): 0
Tygress tomato plants [10]; 1.2 lb/acre
  Toxicity (0-10): 0
Tygress tomato plants [10]; 2.5 lb/acre
  Toxicity (0-10): 1
Tygress tomato plants [10]; 4.8 lb/acre
  Toxicity (0-10): 1
Tygress tomato plants [10]; 7.2 lb/acre
  Toxicity (0-10): 1
Tygress tomato plants [10]; BIOX-MEZ application
  Toxic effects on the tomato plants, statement: no major toxic effects
